# Assay results reported in the supplement of paper PMC6045584.
# ± gives the standard deviation of the averaged measurements.
# How the values were obtained:
# MDV3100 = compound: CNC(=O)c1ccc(N2C(=S)N(c3ccc(C#N)c(C(F)(F)F)c3)C(=O)C2(C)C)cc1F [MDV3100]; test: surviving fraction relative to DMSO-only wells; higher = less growth inhibition; conditions: exposure time: 5 days
# How it was run: (§1)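 Log-phase tumour cell lines, 250–500 cells per well in 384-well plates, received inhibitors at 0.5, 1, 5, 10, 50, 100, 500 and 1000 nM continuously for five days, starting 24 hours after seeding. Viability was quantified with CellTiter-Glo luminescence and normalised to the median of DMSO-only wells to give surviving fraction. Three screens were run per line, and a line stayed in only with replicate Pearson r >0.7 and median Z' >0.3.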
# [1] = compound: Cn1cc(C2=Nc3cc(NC(=O)C(N)C4CCCCC4)cc4c3C2=CNNC4=O)cn1; test: as above; conditions: exposure time: 5 days
# How it was run: as §1
Test System,surviving fraction (MDV3100; 0.5 nM),surviving fraction (MDV3100; 1 nM),surviving fraction (MDV3100; 5 nM),surviving fraction (MDV3100; 10 nM),surviving fraction (MDV3100; 50 nM),surviving fraction (MDV3100; 100 nM),surviving fraction (MDV3100; 500 nM),surviving fraction (MDV3100; 1000 nM),surviving fraction ([1]; 0.5 nM),surviving fraction ([1]; 1 nM),surviving fraction ([1]; 5 nM),surviving fraction ([1]; 10 nM),surviving fraction ([1]; 50 nM),surviving fraction ([1]; 100 nM),surviving fraction ([1]; 500 nM),surviving fraction ([1]; 1000 nM)
HU09 BONE,0.984 ± 0.077,1.03 ± 0.11,1.05 ± 0.071,1.12 ± 0.18,1 ± 0.055,1.04 ± 0.057,0.952 ± 0.053,0.954 ± 0.018,0.977 ± 0.039,1.02 ± 0.062,1.02 ± 0.058,0.975 ± 0.015,0.6343 ± 0.0057,0.372 ± 0.033,0.073 ± 0.0061,0.0617 ± 0.011
BT549 BREAST,0.957 ± 0.078,1.02 ± 0.089,1 ± 0.11,0.939 ± 0.0099,1.01 ± 0.036,0.996 ± 0.099,0.992 ± 0.076,0.98 ± 0.057,1.07 ± 0.11,0.943 ± 0.079,0.957 ± 0.21,1.05 ± 0.14,0.659 ± 0.073,0.371 ± 0.012,0.0533 ± 0.008,0.027 ± 0.006
HOS BONE,1.007 ± 0.0093,0.9937 ± 0.0011,1.01 ± 0.017,0.982 ± 0.0062,1.05 ± 0.022,1.05 ± 0.021,1.05 ± 0.017,1.015 ± 0.0067,1.024 ± 0.0086,1.03 ± 0.038,1.04 ± 0.041,1.02 ± 0.016,0.908 ± 0.052,0.524 ± 0.05,0.0407 ± 0.0015,0.0373 ± 0.0015
ASKA SYNOVIAL,1.01 ± 0.051,0.966 ± 0.037,1.05 ± 0.017,0.59 ± 0.051,1.15 ± 0.13,1.07 ± 0.065,1.14 ± 0.095,0.678 ± 0.079,0.985 ± 0.08,1 ± 0.075,0.98 ± 0.028,0.992 ± 0.048,0.65 ± 0.054,0.355 ± 0.028,0.174 ± 0.013,0.229 ± 0.0066
SCC90 HEADNECK,0.893 ± 0.093,0.91 ± 0.076,1.04 ± 0.11,0.942 ± 0.1,1.17 ± 0.2,1.03 ± 0.13,0.86 ± 0.054,0.925 ± 0.099,0.92 ± 0.099,0.952 ± 0.11,0.943 ± 0.12,0.991 ± 0.014,0.891 ± 0.057,0.702 ± 0.029,0.15 ± 0.0075,0.068 ± 0.0076
SKBR3 BREAST,1.02 ± 0.093,1.09 ± 0.12,1.11 ± 0.069,1.1 ± 0.17,1 ± 0.11,1.052 ± 0.0065,0.971 ± 0.046,1.09 ± 0.18,0.927 ± 0.058,0.948 ± 0.086,0.989 ± 0.088,1 ± 0.073,0.736 ± 0.056,0.459 ± 0.064,0.206 ± 0.011,0.224 ± 0.024
C33A CERVIX,0.753 ± 0.059,0.772 ± 0.05,0.976 ± 0.063,1.07 ± 0.15,0.983 ± 0.098,1.02 ± 0.05,0.834 ± 0.059,0.868 ± 0.044,0.878 ± 0.066,0.99 ± 0.041,1.02 ± 0.094,1.03 ± 0.036,0.952 ± 0.046,0.833 ± 0.063,0.335 ± 0.011,0.0597 ± 0.025
SYO1 SYNOVIAL,0.989 ± 0.036,0.883 ± 0.051,0.946 ± 0.018,0.546 ± 0.027,0.91 ± 0.023,0.914 ± 0.032,0.987 ± 0.05,0.653 ± 0.023,0.977 ± 0.022,0.96 ± 0.026,0.924 ± 0.04,0.897 ± 0.036,0.441 ± 0.02,0.18 ± 0.051,0.0432 ± 0.008,0.042 ± 0.0055
YAMATO SYNOVIAL,1.12 ± 0.074,0.741 ± 0.028,1.08 ± 0.076,0.241 ± 0.015,1.22 ± 0.12,0.977 ± 0.081,1.15 ± 0.053,0.352 ± 0.018,1.32 ± 0.11,1.28 ± 0.16,1.32 ± 0.093,1.33 ± 0.12,0.8 ± 0.032,0.682 ± 0.077,0.285 ± 0.011,0.258 ± 0.017
HT1080 SOFT TISSUE,1.052 ± 0.0076,1.07 ± 0.03,1.063 ± 0.008,1.05 ± 0.016,1.02 ± 0.018,1.04 ± 0.045,0.999 ± 0.015,0.994 ± 0.027,0.977 ± 0.013,1.01 ± 0.03,0.987 ± 0.028,1.03 ± 0.025,0.879 ± 0.041,0.812 ± 0.013,0.153 ± 0.0023,0.122 ± 0.016
SCC003 HEADNECK,0.928 ± 0.12,0.808 ± 0.069,1 ± 0.049,0.996 ± 0.051,1.06 ± 0.032,1.02 ± 0.059,1.02 ± 0.044,0.858 ± 0.098,1.03 ± 0.12,1.05 ± 0.21,1.1 ± 0.083,1.12 ± 0.041,1.1 ± 0.14,1.1 ± 0.095,0.902 ± 0.11,0.86 ± 0.12
PCI30 HEADNECK,0.908 ± 0.034,0.831 ± 0.075,0.954 ± 0.071,1.01 ± 0.08,1.09 ± 0.056,1 ± 0.014,0.861 ± 0.088,0.945 ± 0.036,0.977 ± 0.021,0.929 ± 0.027,0.994 ± 0.051,0.945 ± 0.014,0.913 ± 0.029,0.668 ± 0.039,0.365 ± 0.025,0.333 ± 0.012
HSSYII SYNOVIAL,0.881 ± 0.042,0.848 ± 0.052,0.903 ± 0.022,0.545 ± 0.034,0.908 ± 0.028,0.9 ± 0.066,0.949 ± 0.032,0.721 ± 0.01,0.92 ± 0.0095,0.96 ± 0.063,0.885 ± 0.062,0.863 ± 0.014,0.135 ± 0.01,0.046 ± 0.0044,0.0388 ± 0.0032,0.0475 ± 0.0025
HCC70 BREAST,0.994 ± 0.021,0.955 ± 0.052,0.992 ± 0.085,0.963 ± 0.16,1.06 ± 0.082,0.979 ± 0.051,0.975 ± 0.076,0.88 ± 0.058,1.04 ± 0.035,1.19 ± 0.054,1.13 ± 0.046,1.09 ± 0.063,0.758 ± 0.028,0.313 ± 0.076,0.0723 ± 0.014,0.042 ± 0.0052
VCAP PROSTATE,1.04 ± 0.12,1.06 ± 0.23,1.09 ± 0.12,1.11 ± 0.14,1.13 ± 0.058,1.09 ± 0.15,0.837 ± 0.07,0.722 ± 0.1,1.04 ± 0.058,1.13 ± 0.12,1.14 ± 0.033,1.16 ± 0.081,0.969 ± 0.051,0.97 ± 0.032,0.254 ± 0.059,0.113 ± 0.0095
ZR751 BREAST,1.12 ± 0.16,1.14 ± 0.1,1.04 ± 0.042,1.04 ± 0.043,1.17 ± 0.1,1.12 ± 0.076,1.22 ± 0.1,1.08 ± 0.079,1.04 ± 0.079,1.03 ± 0.19,0.941 ± 0.13,0.908 ± 0.11,0.787 ± 0.032,0.69 ± 0.053,0.625 ± 0.044,0.555 ± 0.018
SIHA CERVIX,0.88 ± 0.024,0.824 ± 0.067,0.999 ± 0.038,0.97 ± 0.057,1.01 ± 0.076,0.975 ± 0.043,0.875 ± 0.086,0.844 ± 0.055,1.053 ± 0.0049,0.972 ± 0.02,1.06 ± 0.086,1.06 ± 0.043,1.02 ± 0.05,1.05 ± 0.07,0.917 ± 0.059,0.524 ± 0.024
CHLA90 AUTONOMIC GANGLIA,0.946 ± 0.11,0.812 ± 0.07,0.878 ± 0.077,0.362 ± 0.028,1 ± 0.078,0.94 ± 0.12,1 ± 0.076,0.625 ± 0.14,1.01 ± 0.025,1.07 ± 0.07,0.956 ± 0.057,0.992 ± 0.023,0.772 ± 0.03,0.557 ± 0.04,0.101 ± 0.0068,0.0843 ± 0.011
NCIH441 LUNG,1.02 ± 0.05,1.04 ± 0.066,1.03 ± 0.052,1 ± 0.071,1.05 ± 0.077,0.924 ± 0.11,0.956 ± 0.16,0.863 ± 0.11,0.975 ± 0.037,1.01 ± 0.018,1.01 ± 0.05,1.06 ± 0.084,1.04 ± 0.024,0.895 ± 0.078,0.401 ± 0.031,0.319 ± 0.0068
MCF7 BREAST,0.84 ± 0.029,0.822 ± 0.031,0.866 ± 0.058,0.767 ± 0.038,0.932 ± 0.03,0.992 ± 0.025,0.97 ± 0.014,0.897 ± 0.028,0.913 ± 0.043,0.918 ± 0.052,0.92 ± 0.023,0.865 ± 0.022,0.989 ± 0.022,0.885 ± 0.029,0.745 ± 0.02,0.575 ± 0.011
